biological target: T1, recombinant human 5-lipoxygenase (Homo sapiens, UniProt P09917); assay: Human 5-Lipoxygenase Enzyme Assay; assay type: biochemical; conditions: spectrophotometric assay, purified recombinant human 5-lipoxygenase, 20 μM arachidonic acid
T1 construct: made in house; host or cells: Sf9 cells infected with recombinant baculovirus rvH5LO (8-1)
T1 sequence (P09917 1-674): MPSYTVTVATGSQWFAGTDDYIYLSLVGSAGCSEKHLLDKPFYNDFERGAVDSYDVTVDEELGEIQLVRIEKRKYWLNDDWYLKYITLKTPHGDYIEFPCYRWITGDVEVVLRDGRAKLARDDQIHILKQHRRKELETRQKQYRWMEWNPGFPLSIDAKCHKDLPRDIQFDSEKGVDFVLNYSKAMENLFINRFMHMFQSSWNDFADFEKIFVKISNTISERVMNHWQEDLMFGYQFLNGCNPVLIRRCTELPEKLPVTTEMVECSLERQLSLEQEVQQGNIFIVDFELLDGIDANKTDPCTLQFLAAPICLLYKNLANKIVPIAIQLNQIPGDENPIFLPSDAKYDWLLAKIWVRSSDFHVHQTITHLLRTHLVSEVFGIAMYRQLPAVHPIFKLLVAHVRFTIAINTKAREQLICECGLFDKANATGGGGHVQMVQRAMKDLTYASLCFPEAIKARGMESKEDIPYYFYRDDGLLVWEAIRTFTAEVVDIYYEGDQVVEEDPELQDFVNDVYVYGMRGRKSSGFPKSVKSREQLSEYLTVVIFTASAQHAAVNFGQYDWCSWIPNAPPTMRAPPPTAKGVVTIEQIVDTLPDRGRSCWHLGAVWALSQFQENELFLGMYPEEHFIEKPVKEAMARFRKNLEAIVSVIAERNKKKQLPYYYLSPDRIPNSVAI
Protocol: Compounds of this invention can be tested using the following assays to determine their mammalian leukotriene biosynthesis inhibiting activity.
Human 5-Lipoxygenase Enzyme Assay
The activity of 5-lipoxygenase was measured using a spectrophotometric assay and recombinant human 5-lipoxygenase as a source of enzyme. Human 5-lipoxygenase was purified from Sf9 cells infected with the recombinant baculovirus rvH5LO (8-1) containing the coding sequence for human 5-lipoxygenase as described by Percival et al., (Eur. J. Biochem 210, 109-117, 1992). The enzymatic activity was measured using a spectrophotometric assay from the optimal rate of conjugated diene formation (absorbance at 238 nm) using the procedure described in Riendeau et al. (Biochem. Pharmacol. 38, 2313-2321, 1989) with minor modifications. The incubation mixture contained 25 mM potassium phosphate, pH 7.5, 0.1 mM EDTA, 0.3 mM CaCl2, 24 μg/ml phosphatidylcholine, 0.1 mM ATP, 0.5 mM DTT, 20 μM arachidonic acid (2 μl from a 100-fold solution in ethanol), inhibitor (2 μl aliquot from a 100-fold solution in DMSO) and an aliquot of purified 5-lipoxygenase. Reactions were initiated by the addition of the purified 5-lipoxygenase and the rate of conjugated diene production was followed for 5 minutes at room temperature. The reaction was performed in a Costar UV plate (Cat. # 3635) and the absorbance changes at 238 nm were recorded with a Molecular Devices UV/VIS 96 well spectrophotometer (Spectra Max 190) using SOFTmax PRO software. Enzymatic activity was calculated from the optimal rate of the reaction by a linear fit of the increase in absorbance at 238 nm over 36 seconds. When the rate of diene formation is low (<0.01 Absorbance Unit/min) the linear fit is performed over 180 seconds.

Row | IC50 | SMILES
1 | 38 nM | CC[C@](O)(c1cn(Cc2ccc3c(-c4cccc(F)c4)cc(=O)oc3c2)nn1)C(F)(F)F [Example 1, (S)-4-(3-fluorophenyl)-7-({4-[1-hydroxy-1-(trifluoromethyl)propyl]-1H-1,2,3-triazol-1-yl}methyl)-2H-chromen-2-one]
2 | 50 nM | CC[C@](O)(c1cn(Cc2ccc3c(-c4ccsc4)cc(=O)oc3c2)nn1)C(F)(F)F [Example 8, (S)-7-[4-(1-Hydroxy-1-trifluoromethyl-propyl)-[1,2,3]triazol-1-ylmethyl]-4-thiophen-3-yl-chromen-2-one]
3 | 62 nM | N#Cc1cc(-c2cccc(F)c2)c2ccc(Cn3cc(C(O)(C4CC4)C4CC4)nn3)cc2n1 [Example 47, 7-({4-[dicyclopropyl(hydroxy)methyl]-1H-1,2,3-triazol-1-yl}methyl)-4-(3-fluorophenyl)-quinoline-2-carbonitrile]
4 | 52 nM | CC[C@](O)(c1cn(Cc2ccc3c(-c4cc(F)cc(F)c4)cc(C#N)nc3c2)nn1)C(F)(F)F [Example 58, (S)-4-(3,5-difluorophenyl)-7-({4-[1-hydroxy-1-(trifluoromethyl)propyl]-1H-1,2,3-triazol-1-yl}methyl)quinoline-2-carbonitrile]
5 | 86 nM | CC[C@](O)(c1cn(Cc2ccc3c(-c4cc(Cl)cc(Cl)c4)cc(C#N)nc3c2)nn1)C(F)(F)F [Example 57, (S)-4-(3,5-dichlorophenyl)-7-({4-[1-hydroxy-1-(trifluoromethyl)propyl]-1H-1,2,3-triazol-1-yl}methyl)quinoline-2-carbonitrile]
6 | 98 nM | O=c1cc(-c2ccc(F)cc2)c2ccc(Cn3cc(C(O)(C4CC4)C4CC4)nn3)cc2o1 [Example 26, 7-[4-(Dicyclopropyl-hydroxy-methyl)-[1,2,3]triazol-1-ylmethyl]-4-(4-fluoro-phenyl)-chromen-2-one]
7 | 35 nM | CC[C@](O)(c1cn(Cc2ccc3c(-c4ccccc4)cc(C(N)=O)nc3c2)nn1)C(F)(F)F [Example 69, (S)-7-({4-[1-hydroxy-1-(trifluoromethyl)propyl]-1H-1,2,3-triazol-1-yl}methyl)-4-phenylquinoline-2-carboxamide]
8 | 45 nM | CC[C@](O)(c1cn(Cc2ccc3c(-c4ccccc4)cc(=O)oc3c2)nn1)C(F)(F)F [Example 5, (S)-7-[4-(1-Hydroxy-1-trifluoromethyl-propyl)-[1,2,3]triazol-1-ylmethyl]-4-phenyl-chromen-2-one]
9 | 82 nM | N#Cc1cc(-c2ccccc2)c2ccc(Cn3cc(C(O)(C4CC4)C4CC4)nn3)cc2n1 [Example 48, 7-({4-[dicyclopropyl(hydroxy)methyl]-1H-1,2,3-triazol-1-yl}methyl)-4-phenylquinoline-2-carbonitrile]
10 | 1210 nM | CC[C@](O)(c1cn(Cc2ccc3c(-c4ccccc4F)cc(=O)oc3c2)nn1)C(F)(F)F [Example 3, (S)-4-(2-Fluoro-phenyl)-7-[4-(1-hydroxy-1-trifluoromethyl-propyl)-[1,2,3]triazol-1-ylmethyl]-chromen-2-one]
11 | 17 nM | CC[C@](O)(c1cn(Cc2ccc3c(-c4ccc(F)cc4)cc(N(C)C)nc3c2)nn1)C(F)(F)F [Example 87, (S)-2-(1-{[2-(dimethylamino)-4-(4-fluorophenyl)quinolin-7-yl]methyl}-1H-1,2,3-triazol-4-yl)-1,1,1-trifluorobutan-2-ol]
12 | 37 nM | CCCC(O)(c1cn(Cc2ccc3c(-c4cccc(F)c4)cc(=O)oc3c2)nn1)C(F)(F)F (stereo not drawn) [Example 30, 4-(3-Fluorophenyl)-7-({4-[1-hydroxy-1-(trifluoromethyl)butyl]-1H-1,2,3-triazol-1-yl}methyl)-2H-chromen-2-one]
13 | 54 nM | CC[C@](O)(c1cn(Cc2ccc3c(-c4cccc(F)c4)cc(C#N)nc3c2)nn1)C(F)(F)F [Example 40, (S)-4-(3-fluorophenyl)-7-({4-[1-hydroxy-1-(trifluoromethyl)propyl]-1H-1,2,3-triazol-1-yl}methyl)quinoline-2-carbonitrile]
14 | 34 nM | CC[C@](O)(c1cn(Cc2ccc3c(-c4ccccc4)cc(C#N)nc3c2)nn1)C(F)(F)F [Example 39, (S)-7-({4-[1-hydroxy-1-(trifluoromethyl)propyl]-1H-1,2,3-triazol-1-yl}methyl)-4-phenylquinoline-2-carbonitrile]
15 | 442 nM | CCC(O)(CC)c1cn(Cc2ccc3c(-c4ccc(F)cc4)cc(=O)oc3c2)nn1 [Example 16, 7-[4-(1-Ethyl-1-hydroxy-propyl)-[1,2,3]triazol-1-ylmethyl]-4-(4-fluoro-phenyl)-chromen-2-one]
16 | 951 nM | O=c1cc(-c2cccc(F)c2)c2ccc(Cn3cc(Cc4ccccc4)nn3)cc2o1 [Example 22, 7-[(4-benzyl-1H-1,2,3-triazol-1-yl)methyl]-4-(3-fluorophenyl)-2H-chromen-2-one]
17 | 51 nM | CC[C@](O)(c1cn(Cc2ccc3c(-c4ccc(F)cc4)cc(C#N)nc3c2)nn1)C(F)(F)F [Example 41, (S)-4-(4-fluorophenyl)-7-({4-[1-hydroxy-1-(trifluoromethyl)propyl]-1H-1,2,3-triazol-1-yl}methyl)quinoline-2-carbonitrile]
18 | 275 nM | CCC(O)(CC)c1cn(Cc2ccc3c(-c4ccccc4)cc(C#N)nc3c2)nn1 [Example 43, 7-{[4-(1-ethyl-1-hydroxypropyl)-1H-1,2,3-triazol-1-yl]methyl}-4-phenylquinoline-2-carbonitrile]
19 | 103 nM | N#Cc1cc(-c2ccc(F)cc2)c2ccc(Cn3cc(C(O)(C4CC4)C4CC4)nn3)cc2n1 [Example 46, 7-({4-[dicyclopropyl(hydroxy)methyl]-1H-1,2,3-triazol-1-yl}methyl)-4-(4-fluorophenyl)quinoline-2-carbonitrile]
20 | 324 nM | CCC(O)(CC)c1cn(Cc2ccc3c(-c4cccc(F)c4)cc(=O)oc3c2)nn1 [Example 12, 7-[4-(1-Ethyl-1-hydroxy-propyl)-[1,2,3]triazol-1-ylmethyl]-4-(3-fluoro-phenyl)-chromen-2-one]
21 | 50 nM | CC[C@](O)(c1cn(Cc2ccc3c(-c4ccc(F)cc4)cc(=O)oc3c2)nn1)C(F)(F)F [Example 2, (S)-4-(4-Fluorophenyl)-7-[4-(1-hydroxy-1-trifluoromethyl-propyl)-[1,2,3]triazol-1-ylmethyl]-chromen-2-one]
22 | 351 nM | CC[C@](O)(c1cn(Cc2ccc3c(-c4coc(C)n4)cc(=O)oc3c2)nn1)C(F)(F)F [Example 37, (S)-7-({4-[1-hydroxy-1-(trifluoromethyl)propyl]-1H-1,2,3-triazol-1-yl}methyl)-4-(2-methyl-1,3-oxazol-4-yl)-2H-chromen-2-one]
23 | 41 nM | CC[C@](O)(c1cn(Cc2ccc3c(-c4ccc(F)cc4)cc(OC)nc3c2)nn1)C(F)(F)F [Example 88, (S)-1,1-trifluoro-2-(1-{[4-(4-fluorophenyl)-2-methoxyquinolin-7-yl]methyl}-1H-1,2,3-triazol-4-yl)butan-2-ol]
24 | 298 nM | CCC(O)(c1nnn(Cc2ccc3c(-c4cccc(F)c4)cc(=O)oc3c2)c1C)C(F)(F)F (stereo not drawn) [Example 27, 4-(3-fluorophenyl)-7-{[4-(1-hydroxy-1-(trifluoromethyl)propyl)-5-methyl-1H-1,2,3-triazol-1-yl}methyl]-2H-chromen-2-one]

— patent US7960409B2, “Pharmaceutical phenylquinoline and chromen-2-one triazole compounds” (Merck Sharp & Dohme Corp., priority 2007, dated 2011)
